For one assay, the target named is T1, His6-TEV-PPARγ-(234-505) (Homo sapiens, UniProt P37231).
T1 construct: The His6-TEV-PPARγ-(234-505) protein for assay was expressed and purified; TEV cleavage site (N); made in house
T1 sequence (P37231 234-505): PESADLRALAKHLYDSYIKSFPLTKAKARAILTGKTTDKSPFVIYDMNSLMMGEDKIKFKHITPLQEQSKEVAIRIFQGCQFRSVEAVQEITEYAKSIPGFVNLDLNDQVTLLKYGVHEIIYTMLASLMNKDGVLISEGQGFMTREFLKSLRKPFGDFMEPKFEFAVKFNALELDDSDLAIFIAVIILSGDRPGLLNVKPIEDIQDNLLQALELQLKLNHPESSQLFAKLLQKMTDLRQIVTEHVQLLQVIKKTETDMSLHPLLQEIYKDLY
In words: TR-FRET Assay to Measure Co-R Peptide Recruitment to PPARγ. In kind it is biochemical. Conditions: Co-R peptide (SMRT-ID2) recruitment; top final concentration 20 μM; read-out: TR-FRET i-Ag; AC50. The procedure, abridged:
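Corepressor recruitment is measured by adding terbium-labeled anti-His antibody and FITC SMRT-ID2 peptide, at 5 and 200 nM final, after a 20-minute room-temperature protein–compound incubation. After one further hour, signal is converted to percent response between DMSO and 500 nM T0070907 wells.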
A general note: In TR-FRET formats the signal depends on donor and acceptor labels being close together.

A further assay deals with UM-UC-9 engineered cells. Put plainly: Cell proliferation / short-term viability assay, CellTiter-Glo 144 h. Conditions: read-out: CTGlo 144 h UMUC9.5, G150. In kind it is cell-based, human. A digest of the protocol:
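Viability read by CellTiter-Glo 2.0 luminescence at day 7 versus DMSO-vehicle wells and a T0 plate measured on day 0. Cells: UM-UC-9 engineered assay-ready stocks, 500 cells/well in high-glucose DMEM with 10% FBS, 37° C, 5% CO2.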

Like-named read-outs stand apart in the source and are kept apart here. A value given as a limit tells only on which side of the number the result lay.

`COc1cc(-c2cc(C(=O)N3CCC(C(=O)NCc4cccc(Cl)c4)CC3C)n[nH]2)c(Cl)cn1` (mixture of isomers) [Example 172, 1-(5-(5-chloro-2-methoxypyridin-4-yl)-1H-pyrazole-3-carbonyl)-N-(3-chlorobenzyl)-2-methylpiperidine-4-carboxamide]: on His6-TEV-PPARγ-(234-505), the AC50 was 16.5 nM. Moreover, the IC50 with UM-UC-9 engineered cells (Homo sapiens, UM-UC-9, 144 h) worked out at 163 nM.
On to `COc1cc(-c2cc(C(=O)N3CCC(C(=O)NC4CCC(C(F)(F)F)C(O)C4)CC34CC4)n[nH]2)c(F)cn1` (mixture of isomers) [Example 501, (S)-4-(5-(5-fluoro-2-methoxypyridin-4-yl)-1H-pyrazole-3-carbonyl)-N-((1R,3R,4S)-3-hydroxy-4-(trifluoromethyl)cyclohexyl)-4-azaspiro[2.5]octane-7-carboxamide and (S)-4-(5-(5-fluoro-2-methoxypyridin-4-yl)-1H-pyrazole-3-carbonyl)-N-((1S,3S,4R)-3-hydroxy-4-(trifluoromethyl)cyclohexyl)-4-azaspiro[2.5]octane-7-carboxamide], for which, at His6-TEV-PPARγ-(234-505), the AC50 was determined as 5.4 nM. The IC50 in the assay on UM-UC-9 engineered cells amounted to 13 nM.
Consider `COc1cc(-c2cc(C(=O)N3CC[C@H](C(=O)NCc4ncc(F)cc4C(F)(F)F)CC34CC4)n[nH]2)c(F)cn1` [Example 363, (S)-4-(5-(5-fluoro-2-methoxypyridin-4-yl)-1H-pyrazole-3-carbonyl)-N-((5-fluoro-3-(trifluoromethyl)pyridin-2-yl)methyl)-4-azaspiro[2.5]octane-7-carboxamide], for which the AC50 on His6-TEV-PPARγ-(234-505) came out at 6 nM. Moreover, the IC50 in the assay with UM-UC-9 engineered cells (Homo sapiens, UM-UC-9, 144 h) stood at 3.5 nM.
For `COc1cc(-c2cc(C(=O)N3CC[C@H](C(=O)NC4CCNC4)CC34CC4)n[nH]2)c(F)cn1` (stereo partly drawn) [Example 471, (7S)-4-(5-(5-fluoro-2-methoxypyridin-4-yl)-1H-pyrazole-3-carbonyl)-N-(pyrrolidin-3-yl)-4-azaspiro[2.5]octane-7-carboxamide], in that order: 62.6 nM and more than 10000 nM.
In the case of “(S)—N-((4S,7r)-3,3-difluoro-1-oxaspiro[3.5]nonan-7-yl)-4-(5-(5-fluoro-2-methoxypyridin-4-yl)-1H-pyrazole-3-carbonyl)-4-azaspiro[2.5]octane-7-carboxamide and (S)—N-((4R,7s)-3,3-difluoro-1-oxaspiro[3.5]nonan-7-yl)-4-(5-(5-fluoro-2-methoxypyridin-4-yl)-1H-pyrazole-3-carbonyl)-4-azaspiro[2.5]octane-7-carboxamide [Example 374]”, the AC50 at His6-TEV-PPARγ-(234-505) was 13.1 nM. Further, in the assay on UM-UC-9 engineered cells, the IC50 was found to be 15.8 nM.
As to `COc1cc(-c2cc(C(=O)N3CCC(C(=O)NCc4cccc5cc[nH]c45)CC3)n[nH]2)c(Cl)cn1` [Example 194, N-((1H-indol-7-yl)methyl)-1-(5-(5-chloro-2-methoxypyridin-4-yl)-1H-pyrazole-3-carbonyl)piperidine-4-carboxamide], the AC50 on His6-TEV-PPARγ-(234-505) came to 808 nM. For the same compound, the IC50 with UM-UC-9 engineered cells (Homo sapiens, UM-UC-9, 144 h) stood at 484 nM.
Regarding `COc1cc(-c2cc(C(=O)N3CC[C@H](C(=O)NCc4ncc(N5CC6CC5CN6)cn4)CC34CC4)n[nH]2)c(F)cn1` (single isomer, unassigned) [Example 467-A], the AC50 on His6-TEV-PPARγ-(234-505) came out at 327 nM. Further, the IC50 with UM-UC-9 engineered cells was more than 10000 nM.
Regarding `COc1cc(-c2cc(C(=O)N3CC[C@H](C(=O)Nc4cnn5c4OC(C)(C)CC5)CC34CC4)n[nH]2)c(F)cn1` [Example 498, (S)—N-(5,5-dimethyl-6,7-dihydro-5H-pyrazolo[5,1-b][1,3]oxazin-3-yl)-4-(5-(5-fluoro-2-methoxypyridin-4-yl)-1H-pyrazole-3-carbonyl)-4-azaspiro[2.5]octane-7-carboxamide], the AC50 on His6-TEV-PPARγ-(234-505) was found to be 2.9 nM. Moreover, in the assay on UM-UC-9 engineered cells (Homo sapiens, UM-UC-9, 144 h), the IC50 came out at 21.9 nM.
For `Cc1cc(-c2cc(C(=O)N3CC[C@@H](C(=O)NC4CCC5(CCO5)CC4)CC34CC4)n[nH]2)ncn1` (mixture of isomers) [Example 300-A, (R)-4-(5-(6-methylpyrimidin-4-yl)-1H-pyrazole-3-carbonyl)-N-(1-oxaspiro[3.5]nonan-7-yl)-4-azaspiro[2.5]octane-7-carboxamide], in that order: 18000 nM and more than 4000 nM.
For `COc1cc(-c2cc(C(=O)N3CC[C@H](C(=O)NC4CCC(N)(C(F)(F)F)CC4)CC34CC4)n[nH]2)c(F)cn1` (single isomer, unassigned) [Example 399-A], in that order: 298 nM and 176 nM.
For `COc1cc(-c2cc(C(=O)N3[C@@H]4CC[C@H]3C[C@H](C(=O)NCc3cccc(Cl)c3)C4)n[nH]2)c(F)cn1` [Example 160-A, (1R,3s,5S)—N-(3-chlorobenzyl)-8-(5-(5-fluoro-2-methoxypyridin-4-yl)-1H-pyrazole-3-carbonyl)-8-azabicyclo[3.2.1]octane-3-carboxamide], in that order: 11.5 nM and 38.2 nM.
On to `COc1cc(-c2cc(C(=O)N3CCC(C(=O)NCc4cccc(Cl)c4)C(F)C3)n[nH]2)c(Cl)cn1` (mixture of isomers) [Example 177, 1-(5-(5-chloro-2-methoxypyridin-4-yl)-1H-pyrazole-3-carbonyl)-N-(3-chlorobenzyl)-3-fluoropiperidine-4-carboxamide], for which the AC50 at His6-TEV-PPARγ-(234-505) was determined as 29.8 nM. Moreover, the IC50 in the assay with UM-UC-9 engineered cells (Homo sapiens, UM-UC-9, 144 h) stood at 68.9 nM.
For `COc1cc(-c2cc(C(=O)N3CCC(C(=O)NCc4cccc(F)c4)CC3)n[nH]2)c(Cl)cn1` [Example 157, 1-(5-(5-chloro-2-methoxypyridin-4-yl)-1H-pyrazole-3-carbonyl)-N-(3-fluorobenzyl)piperidine-4-carboxamide], in that order: 130 nM and 212 nM.
For `COc1cc(-c2cc(C(=O)N3CCC(O)(C(=O)NCc4cccc(Cl)c4)CC3)n[nH]2)c(Cl)cn1` [Example 171, 1-(5-(5-chloro-2-methoxypyridin-4-yl)-1H-pyrazole-3-carbonyl)-N-(3-chlorobenzyl)-4-hydroxypiperidine-4-carboxamide], in that order: 210 nM and 1550 nM.
Regarding `COc1cc(-c2cc(C(=O)N3CC[C@H](C(=O)NC4CCCn5cc(C(F)(F)F)nc54)CC34CC4)n[nH]2)c(F)cn1` (single isomer, unassigned) [Example 502-A], on His6-TEV-PPARγ-(234-505), the AC50 came out at 110 nM. Also, in the assay on UM-UC-9 engineered cells, the IC50 stood at 750 nM.
As to `COc1cc(-c2cc(C(=O)N3CC[C@H](C(=O)NCc4ncc(N5CC(C)NC(C)C5)cn4)CC34CC4)n[nH]2)c(F)cn1` (stereo partly drawn) [Example 447, (7S)—N-((5-(3,5-dimethylpiperazin-1-yl)pyrimidin-2-yl)methyl)-4-(5-(5-fluoro-2-methoxypyridin-4-yl)-1H-pyrazole-3-carbonyl)-4-azaspiro[2.5]octane-7-carboxamide], at His6-TEV-PPARγ-(234-505), the AC50 was found to be 508 nM. Further, in the assay on UM-UC-9 engineered cells (Homo sapiens, UM-UC-9, 144 h), the IC50 was determined as 3630 nM.
For `COc1cc(-c2cc(C(=O)N3CC[C@H](C(=O)NCc4cccc5ccnn45)CC34CC4)n[nH]2)c(F)cn1` [Example 416, (S)-4-(5-(5-fluoro-2-methoxypyridin-4-yl)-1H-pyrazole-3-carbonyl)-N-(pyrazolo[1,5-a]pyridin-7-ylmethyl)-4-azaspiro[2.5]octane-7-carboxamide], in that order: 6.1 nM and 7.4 nM.
On the same counts, the results for `COc1cc(-c2cc(C(=O)N3CCC(C(=O)NCc4ncccc4C(F)(F)F)CC3)n[nH]2)c(Cl)cn1` [Example 130, 1-(5-(5-chloro-2-methoxypyridin-4-yl)-1H-pyrazole-3-carbonyl)-N-((3-(trifluoromethyl)pyridin-2-yl)methyl)piperidine-4-carboxamide] are 75.9 nM and 685 nM.
For `COc1cc(-c2cc(C(=O)N3CCC(C(=O)NC4CCC(F)(F)C4)CC3)n[nH]2)c(Cl)cn1` (racemic) [Example 175, 1-(5-(5-chloro-2-methoxypyridin-4-yl)-1H-pyrazole-3-carbonyl)-N-(3,3-difluorocyclopentyl)piperidine-4-carboxamide], in that order: 349 nM and 1640 nM.
For the compound `COc1cc(-c2cc(C(=O)N3CCC(C(=O)N[C@H]4CC[C@@](O)(C(F)(F)F)CC4)CC34COC4)n[nH]2)c(F)cn1` (some centres unmarked) [Example 444, 5-(5-(5-fluoro-2-methoxypyridin-4-yl)-1H-pyrazole-3-carbonyl)-N-((1r,4r)-4-hydroxy-4-(trifluoromethyl)cyclohexyl)-2-oxa-5-azaspiro[3.5]nonane-8-carboxamide], the AC50 on His6-TEV-PPARγ-(234-505) was found to be 113 nM. In addition, the IC50 in the assay on UM-UC-9 engineered cells (Homo sapiens, UM-UC-9, 144 h) was more than 10000 nM.
On the same counts, the results for `COc1cc(-c2cc(C(=O)N3CC[C@@H](C(=O)N[C@H]4CC[C@@](O)(C(F)(F)F)CC4)CC34CC4)n[nH]2)c(F)cn1` (single isomer, unassigned) [Example 169-A] are 79 nM and 273 nM.
For `COc1cc(-c2cc(C(=O)N3CC[C@H](C(=O)NCc4nccnc4Cl)CC34CC4)n[nH]2)c(F)cn1` [Example 388, (S)—N-((3-chloropyrazin-2-yl)methyl)-4-(5-(5-fluoro-2-methoxypyridin-4-yl)-1H-pyrazole-3-carbonyl)-4-azaspiro[2.5]octane-7-carboxamide], in that order: 11.4 nM and 17.6 nM.

These data come from US12606541B2, “PPARg modulators and methods of use” (Eisai R&D Management Co., Ltd., priority 2020, dated 2026).
